pIC50: −log10 of the molar value.
Columns and labels:
[1] = Growth inhibition of human HEK293T cells at 10 uM after 24 hrs by MTS assay relative to control; assay type: cell-based, HEK-293T; conditions: HEK293T cells, read-out: GI
[2] = Growth inhibition of human LO2 cells at 10 uM after 24 hrs by MTS assay relative to control; assay type: cell-based, L02; conditions: LO2 cells, read-out: GI
MCF7 [3] = assay: Growth inhibition of human MCF7 cells at 10 uM after 24 hrs by MTS assay relative to control; assay type: functional; conditions: MCF7, 24 h, read-out: GI
SW480 [4] = assay: Growth inhibition of human SW480 cells at 10 uM after 24 hrs by MTS assay relative to control; assay type: functional; conditions: SW480, 24 h, read-out: GI
HepG2 = assay: Growth inhibition of human HepG2 cells at 10 uM after 24 hrs by MTS assay relative to control; assay type: functional; conditions: HepG2, 24 h, read-out: GI
RAW264.7 = assay: Antiinflammatory activity in mouse RAW264.7 cells assessed as inhibition of LPS-induced NO production at 10 uM after 24 hrs by Griess reagent based assay relative to control; assay type: functional; conditions: RAW264.7, 24 h
Homo sapiens = species on record: Homo sapiens; assay: Inhibition of LPS-induced NF-kappaB transcription (unknown origin) expressed in human SW480 cells at 10 uM by luciferase reporter gene assay; assay type: cell-based
[5] = target: T1, Tyrosine-protein phosphatase non-receptor type 1 (Homo sapiens) (UniProt P18031); assay: Inhibition of recombinant human PTP1B using p-nitrophenyl phosphate as substrate at 10 uM after 30 mins relative to control
T1 sequence (whole entry): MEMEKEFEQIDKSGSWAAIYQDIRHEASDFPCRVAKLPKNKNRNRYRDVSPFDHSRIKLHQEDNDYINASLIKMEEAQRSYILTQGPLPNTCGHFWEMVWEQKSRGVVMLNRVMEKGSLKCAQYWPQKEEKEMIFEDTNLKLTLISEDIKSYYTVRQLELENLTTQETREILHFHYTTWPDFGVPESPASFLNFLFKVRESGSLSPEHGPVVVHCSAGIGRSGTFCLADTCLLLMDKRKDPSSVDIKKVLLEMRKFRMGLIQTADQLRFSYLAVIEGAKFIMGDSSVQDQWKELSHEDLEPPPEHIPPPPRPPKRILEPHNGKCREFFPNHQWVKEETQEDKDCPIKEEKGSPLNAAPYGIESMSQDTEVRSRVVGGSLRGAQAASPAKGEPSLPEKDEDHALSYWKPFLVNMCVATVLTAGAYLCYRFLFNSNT

[6] = target: T2, Tyrosine-protein phosphatase non-receptor type 1 (Homo sapiens, UniProt P18031); assay: Inhibition of recombinant human PTP1B using p-nitrophenyl phosphate as substrate after 30 mins
T2 sequence (P18031 whole entry): T1 sequence (whole entry)

[7] = target: Mushroom tyrosinase (Agaricus bisporus) (UniProt O42713+Q00024+C7FF04+C7FF05); assay: Inhibition of mushroom tyrosinase at 10 uM using L-tyrosine as substrate incubated for 15 mins followed by substrate addition relative to control
MCF7 [8] = assay: Cytotoxicity against human MCF7 cells assessed as reduction in cell viability after 24 hrs by MTS assay; assay type: functional, cell-based; conditions: MCF7, 24 h
SW480 [9] = assay: Cytotoxicity against human SW480 cells assessed as reduction in cell viability after 24 hrs by MTS assay; assay type: functional, cell-based; conditions: SW480, 24 h

SMILES	inhibition [5] [%]	pIC50 [6]	inhibition [7] [%]	inhibition at 24 h, 10 µM [1] [%]	inhibition at 24 h, 10 µM [2] [%]	inhibition of growth at 10 µM (MCF7 [3]) [%]	inhibition of growth at 10 µM (SW480 [4]) [%]	inhibition of growth at 10 µM (HepG2) [%]	inhibition at 10 µM (RAW264.7) [%]	inhibition (Homo sapiens) [%]	pIC50 (MCF7 [8])	pIC50 (SW480 [9])
CC(C)=CCc1c(O)ccc(C(=O)/C=C/c2ccc(O)cc2)c1O [ISOBAVACHALCONE]	73	–	14	–	–	16	20	39	0	0	–	–
CC(C)=CCc1cc(-c2coc3cc(O)cc(O)c3c2=O)cc(O)c1O [GLYCYRRHISOFLAVONE]	52	–	8	–	–	15	18	0	3	8	–	–
O=C1C[C@@H](c2ccc(O)cc2)Oc2cc(O)ccc21 [LIQUIRTIGENIN]	36	–	2	–	–	27	9	13	0	19	–	–
CC(C)=CCc1c(O)ccc(-c2cc3ccc(O)cc3o2)c1O [2'-O-DEMETHYLBIDWILLOL B]	24	–	12	–	–	16	36	8	32	42	–	–
CC(C)=CCc1c(O)ccc(C(=O)/C=C/c2ccc(O)c(O)c2)c1O	16	–	14	–	–	12	11	1	11	14	–	–
COc1cc(O)ccc1/C=C/C(=O)c1ccc(O)cc1 [ECHINATIN]	75	–	16	–	–	0	24	6	26	0	–	–
CC1(C)C=Cc2c(ccc(-c3coc4cc(O)ccc4c3=O)c2O)O1 [GLABRONE]	69	–	3	–	–	12	50	16	5	15	–	–
O=c1c(-c2ccc(O)c(O)c2)coc2cc(O)ccc12	28	–	9	–	–	0	43	3	0	0	–	–
CC1(C)C=Cc2cc(-c3coc4cc(O)cc(O)c4c3=O)ccc2O1	27	–	14	–	–	2 to 23	13 to 70	11	10	27	–	–
CC(C)=CCc1c(O)ccc2c1oc1c3ccc(O)cc3oc(=O)c21 [ISOSOJAGOL]	21	–	11	–	–	12	26	23	15	28	–	–
CC1(C)C=Cc2c(cc3occ(-c4ccc(O)cc4)c(=O)c3c2O)O1 [ALPINUMISOFLAVONE]	79	–	2	15	5	3	13	40	19	41	–	–
CC(C)=CCc1c(O)cc(O)c2c(=O)c(-c3ccc(O)cc3O)coc12	34	–	17	–	–	31	13	5	9	8	–	–
O=c1cc(-c2ccc(O)cc2)oc2cc(O)ccc12	55	–	11	–	–	11	22	18	5	0	–	–
O=C(/C=C/c1ccc(O)c(O)c1)c1ccc(O)c(O)c1	1	–	16	–	–	5	10	8	1	13	–	–
O=c1c(-c2ccc(O)cc2)coc2cc(O)cc(O)c12 [GENISTEIN]	29	–	2	–	–	6	21	29	13	14	–	–

The next lines start with results.

inhibition [5] [%]	pIC50 [6]	inhibition [7] [%]	SMILES	inhibition at 24 h, 10 µM [1] [%]	inhibition at 24 h, 10 µM [2] [%]	inhibition of growth at 10 µM (MCF7 [3]) [%]	inhibition of growth at 10 µM (SW480 [4]) [%]	inhibition of growth at 10 µM (HepG2) [%]	inhibition at 10 µM (RAW264.7) [%]	inhibition (Homo sapiens) [%]	pIC50 (MCF7 [8])	pIC50 (SW480 [9])
98	6.01	16	CC(C)=CCc1cc(/C=C/C(=O)c2ccc(O)cc2O)ccc1O [LICOAGROCHALCONE A]	2	3	2	12	2	16	25	–	–
92	5.35	2	CC(C)=CCc1cc(-c2coc3c(CC=C(C)C)c(O)cc(O)c3c2=O)cc(O)c1O	–	–	3	55	0	0	14	–	–
51	–	7	CC(C)=CCc1c(O)c(CC=C(C)C)c2occ(-c3ccc(O)cc3)c(=O)c2c1O	49	12	73	81	30	22	26	5.07	5.09
90	5.99	5	CC(C)=CCc1cc([C@@H]2CC(=O)c3c(cc(O)c(CC=C(C)C)c3O)O2)ccc1O [MACARANGAFLAVANONE B]	–	–	36	87	10	5	24	–	–
7	–	5	CC(C)=CCc1c(O)ccc(-c2coc3cc(O)cc(O)c3c2=O)c1O	–	–	18	26	5	20	5	–	–
50	–	15	CC(C)=CCc1c(O)ccc2c1O[C@H](c1ccc3c(c1)C=CC(C)(C)O3)CC2=O	25	2	75	72	14	24	20	4.89	5.01
47	–	0	CC(C)=CCc1c(O)c(CC=C(C)C)c2oc(-c3ccc(O)cc3)cc(=O)c2c1O	20	46	68	61	11	9	34	4.91	–

Source: ChEMBL document CHEMBL4033705, “Screening for bioactive natural products from a 67-compound library of Glycyrrhiza inflata” (Bioorg Med Chem, 2017)
